Data published in PubChem BioAssay AID1347408 (Pan Lab, Icahn School of Medicine at Mount Sinai, 2020).
Results filed as inconclusive are left out. Calls of active or inactive are those of the source.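 The calls were made as follows: active = IC50 half-inhibiting concentration at or below 10 micromolar; inconclusive = IC50 above 10 and up to 20 micromolar; inactive = IC50 above 20 micromolar.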

biological target: E3 ubiquitin-protein ligase RBX1 (Homo sapiens) + Cullin-1 (Homo sapiens) (UniProt P62877+Q13616); assay: inhibition of cullin E3 di-ubiquitin formation – biochemical, FRET, E1/Cdc34 cascade, dose response (AID 1347408); conditions: in vitro di-Ub FRET, E1/Cdc34/ROC1-CUL1 CTD
Sequence (P62877 whole entry, looked up): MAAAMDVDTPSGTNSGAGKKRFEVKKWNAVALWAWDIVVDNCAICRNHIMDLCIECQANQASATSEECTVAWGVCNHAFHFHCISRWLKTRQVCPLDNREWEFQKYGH
Sequence (Q13616 whole entry, looked up): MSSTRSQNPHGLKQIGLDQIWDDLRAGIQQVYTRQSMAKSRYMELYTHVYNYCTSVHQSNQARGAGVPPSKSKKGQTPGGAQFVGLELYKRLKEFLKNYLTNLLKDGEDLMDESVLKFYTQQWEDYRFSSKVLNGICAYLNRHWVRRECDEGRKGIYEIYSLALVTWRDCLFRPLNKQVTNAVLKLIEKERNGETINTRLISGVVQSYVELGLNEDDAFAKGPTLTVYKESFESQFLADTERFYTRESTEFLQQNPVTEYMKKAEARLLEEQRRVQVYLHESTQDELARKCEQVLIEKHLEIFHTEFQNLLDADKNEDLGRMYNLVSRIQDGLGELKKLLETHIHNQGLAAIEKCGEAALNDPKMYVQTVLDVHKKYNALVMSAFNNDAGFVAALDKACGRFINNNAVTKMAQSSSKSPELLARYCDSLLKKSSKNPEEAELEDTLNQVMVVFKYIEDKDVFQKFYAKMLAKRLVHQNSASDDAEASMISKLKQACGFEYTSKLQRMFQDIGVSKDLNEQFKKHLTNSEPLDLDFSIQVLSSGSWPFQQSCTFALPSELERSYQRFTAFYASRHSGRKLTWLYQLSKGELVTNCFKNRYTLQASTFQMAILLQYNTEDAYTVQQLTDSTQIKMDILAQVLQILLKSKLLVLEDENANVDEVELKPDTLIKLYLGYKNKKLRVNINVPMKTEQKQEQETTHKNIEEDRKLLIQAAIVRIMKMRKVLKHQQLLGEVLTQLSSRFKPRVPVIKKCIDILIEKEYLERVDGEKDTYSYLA

Which IC50 does the source give for NCCCSc1nc2c(c(=O)n1Cc1ccccc1)C1(CCCCC1)Cc1ccccc1-2 here?
Its IC50 is “inactive”.

For CNc1ccccc(C(=O)C=Cc2ccc3c(c2)OCO3)c1=O, which IC50 is on record?
The IC50 was “inactive”.

How did the IC50 turn out when COc1ccc(C=C2C(=O)N(Cc3ccco3)C(=O)N(C(C)C)C2=O)cc1 was run?
The IC50 was “inactive”.

Which IC50 does the source give for CN(CCC(=O)C=Cc1ccc(Cl)c(Cl)c1)CCc1ccc2c(c1)OCO2 here?
The IC50 was “inactive”.

CCCCCCCCCOc1ccc(C#CC(=O)O)cc1 was tested. Which IC50 did it give?
Its IC50 is 4.2 µM.

How did the IC50 turn out when Cc1ccc2c(c1)-c1c(c(C(=O)N3CCN(c4cc(C)ccc4C)CC3)nn1C)CS2 was run?
Its IC50 is “inactive”.

With Cc1ccc(NC(=O)c2ccc(Cl)cc2Cl)c(S(=O)(=O)O)c1 as the compound, how does the IC50 read?
Its IC50 is “inactive”.

CCOc1cccc2c1N[C@@H](c1ccc(C(=O)O)cc1)[C@H]1CC=C[C@@H]21 was tested. Which IC50 did it give?
The IC50 was “inactive”.

CCOc1ccc2nc3cc(NC(=O)c4ccco4)ccc3c(N)c2c1 was tested. Which IC50 did it give?
Its IC50 is 4.8 µM.

With Cc1ccc([C@@H]2Nc3c(ccc(C(=O)O)c3C)[C@@H]3C=CC[C@@H]32)cc1 as the compound, how does the IC50 read?
Its IC50 is “inactive”.

Which IC50 does the source give for CCNc1ccc(Br)cc(C(=O)/C=C/c2c(Cl)cccc2Cl)c1=O here?
Its IC50 is “inactive”.
